The results in this text go back to PMC12365235, “Molecular mechanisms of thiazide-like diuretics-mediated inhibition of the human Na-Cl cotransporter” (Nature Communications, 2025).

The target of the test is T1, hNCC(N149A) (Homo sapiens, UniProt P55017, N149A).
T1 construct: expressed in transfected cells
T1 sequence (P55017 1-1021 N149A): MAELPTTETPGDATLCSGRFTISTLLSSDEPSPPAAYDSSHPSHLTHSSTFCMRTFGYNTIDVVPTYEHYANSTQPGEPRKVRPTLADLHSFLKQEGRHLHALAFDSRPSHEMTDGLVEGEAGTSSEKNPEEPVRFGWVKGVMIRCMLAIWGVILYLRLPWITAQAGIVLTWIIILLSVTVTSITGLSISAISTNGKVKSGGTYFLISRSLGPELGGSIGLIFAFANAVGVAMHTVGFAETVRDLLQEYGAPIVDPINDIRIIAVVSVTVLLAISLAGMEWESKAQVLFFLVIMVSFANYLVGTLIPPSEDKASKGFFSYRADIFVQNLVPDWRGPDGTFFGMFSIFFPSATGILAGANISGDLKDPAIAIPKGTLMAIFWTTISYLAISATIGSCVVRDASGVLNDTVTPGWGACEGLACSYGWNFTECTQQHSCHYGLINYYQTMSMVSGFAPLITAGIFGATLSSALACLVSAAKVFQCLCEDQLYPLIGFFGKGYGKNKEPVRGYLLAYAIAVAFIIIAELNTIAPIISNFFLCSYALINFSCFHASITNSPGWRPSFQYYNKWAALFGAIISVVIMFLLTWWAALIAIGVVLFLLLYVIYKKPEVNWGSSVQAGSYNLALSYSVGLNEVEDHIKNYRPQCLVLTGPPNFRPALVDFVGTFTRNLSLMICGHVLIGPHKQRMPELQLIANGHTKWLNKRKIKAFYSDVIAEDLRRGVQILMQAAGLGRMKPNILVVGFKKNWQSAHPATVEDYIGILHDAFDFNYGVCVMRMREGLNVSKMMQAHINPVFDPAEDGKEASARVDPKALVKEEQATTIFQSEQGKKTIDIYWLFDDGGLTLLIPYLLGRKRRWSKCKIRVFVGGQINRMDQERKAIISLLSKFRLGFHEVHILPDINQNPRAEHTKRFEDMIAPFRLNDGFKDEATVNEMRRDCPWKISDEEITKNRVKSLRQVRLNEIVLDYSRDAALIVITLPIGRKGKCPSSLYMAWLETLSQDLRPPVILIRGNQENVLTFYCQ
Nature of the test: 125I- uptake assay, hNCC(N149A) variant. Conditions: N149A substitution; for pIC50: iodide uptake. Type of test: cell-based. The method, then:
HEK293S cell lines, cultured in 293 Freestyle medium (Life Technologies; plus 10% fetal bovine serum), stably expressing hNCC and its variants were generated following published protocols. Cells were transfected using Lipofectamine 3000 (Invitrogen) with a pSBbi-RP-based plasmid containing hNCC or its variants and the SB100X vector. Puromycin (2 μg/mL; Gemini Bio-Products) was used for selection of stable cell lines.
To prepare for the uptake experiment, cells were plated at 0.5 × 10^6 cells/well in 24-well plates one day in advance. To activate NCC, cells were treated with a chloride-free hypotonic solution composed of 67.5 mM sodium-, 2.5 mM potassium-, 0.25 mM magnesium-, and 0.25 mM calcium-gluconate, as well as 7.5 mM HEPES pH 7.4 (buffered using Tris) at 37 °C for 10 min[72]. After the activation step, the experiments were carried out at room temperature. Ten minutes before the start of ^125I^− uptake, 70 μM Bumetanide (Thermo Scientific Chemicals) and 100 μM 4,4′-diisothiocyanatostilbene-2,2′-disulfonic acid (DIDS; Sigma) were added to suppress background iodide uptake activity. Indicated thiazide diuretics were also added to the indicated concentrations 10 min before the start of ^125I^− uptake. The original buffer was switched to an uptake buffer composed of 135 mM Na-gluconate, 5 mM K-gluconate, 1 mM Mg-gluconate, 1 mM Ca-gluconate, 70 μM bumetanide, 100 μM DIDS, 1 mM NaI, 0.25 μCi/ml Na^125I (American Radiolabeled Chemicals, Inc.), and 15 mM HEPES pH 7.4 (buffered using Tris), in the presence or absence of thiazide diuretics to initiate ^125I^− uptake. The ^125I^− uptake process lasted 1 h and was stopped by two rapid washes using ice-cold 110 mM MgCl2. Cells lysed using 1% sodium dodecyl sulfate (SDS) were analyzed by scintillation counting.
To calculate the fold change of the half-maximal inhibitory concentration (IC50) between hNCC(WT) and different hNCC variants, individual dose-response curves were normalized first using the smallest mean and the value of the lowest concentration as 0% and 100%, respectively. The normalized data were then fitted using the “EC50 shift” nonlinear regression in GraphPad Prism 10 with the shared EC50Control assigned to be the IC50 of hNCC(WT). The following constraints were used in the EC50 shift analysis. The EC50Control was set to be shared across all curves under analysis and constrained to be greater than 0. The EC50Ratio was constrained to be greater than 0. The bottom, top, and HillSlope were constrained to be 0, 100, and −1, respectively. For Fig. 1f, g and Supplementary Fig. 2d, GraphPad Prism 10 was used to perform curve fitting and IC50 calculation for normalized data using y = 100/(1 + (x/IC50)).

In general, pIC50 refers to −log10 of the IC50, conventionally taken in molar units. Low readings indicate a high IC50, high ones a low IC50.

pIC50: −log10 of the molar value.

`NS(=O)(=O)c1cc(C2(O)NC(=O)c3ccccc32)ccc1Cl` (stereo not shown) [chlorthalidone]: the “fold less sensitive than hNCC(WT)” value was around 95 fold and the negative logarithm of the IC50 (pIC50) is 5.66.
Consider `CC1Cc2ccccc2N1NC(=O)c1ccc(Cl)c(S(N)(=O)=O)c1` (stereo not shown) [indapamide], for which the “fold less sensitive than hNCC(WT)” value is recorded as “approximately 27 fold” and the pIC50 is 6.47.
